From patent EP0259014A2, “5-Deoxy-5-fluorokanamycin B derivatives and processes for the production thereof” (ZAIDAN HOJIN BISEIBUTSU KAGAKU KENKYU KAI, priority 1986, dated 1988)
≈ marks a conversion by molar mass, not a printed value. Like-named read-outs stand apart in the source and are kept apart here.

Experiments:
[1] = system: Corynebacterium bovis 1810; assay: MIC, serial dilution on Mueller Hinton agar; type: cell-based; conditions: Corynebacterium bovis 1810; Mueller Hinton agar, 37°C, 18 hours; read-out: MIC.
Escherichia coli JR225 = assay: microbe, parasite or virus in culture; type: cell-based; conditions: Escherichia coli, JR225, 18 h
Serratia marcescens = assay: MIC, serial dilution on Mueller Hinton agar; type: cell-based; conditions: 18 h
Providencia sp. Pv 16 = assay: MIC, serial dilution on Mueller Hinton agar; type: cell-based
[2] = system: Escherichia coli K-12 LA 290 R55; assay: MIC, serial dilution on Mueller Hinton agar; type: cell-based; conditions: Escherichia coli, K12LA290R55, 18 h
[3] = system: Escherichia coli K-12 ML 1629; assay: MIC, serial dilution on Mueller Hinton agar; type: cell-based; conditions: K12ML1629, Escherichia coli K-12 ML 1629, resistance mechanism APH(3')-I, 37°C, 18 hours
Proteus rettgeri GN 311 = assay: MIC, serial dilution on Mueller Hinton agar; type: cell-based; conditions: Providencia rettgeri, GN311; Proteus rettgeri GN 311; Mueller Hinton agar, 37°C, 18 hours; read-out: MIC.
[4] = system: Pseudomonas aeruginosa A3; assay: MIC, serial dilution on Mueller Hinton agar; type: cell-based; conditions: Pseudomonas aeruginosa A3; Mueller Hinton agar, 37°C, 18 hours; read-out: MIC.
[5] = system: Pseudomonas aeruginosa GN 315; assay: MIC, serial dilution on Mueller Hinton agar; type: cell-based
[6] = system: Escherichia coli JR66/W677; assay: microbe, parasite or virus in culture; type: cell-based; conditions: JR66/W677, 18 h
Escherichia coli K-12 = assay: MIC, serial dilution on Mueller Hinton agar; type: cell-based; conditions: K12; Escherichia coli K-12; Mueller Hinton agar, 37°C, 18 hours; read-out: MIC.
[7] = system: Staphylococcus aureus Ap01; assay: MIC, serial dilution on Mueller Hinton agar; type: cell-based
Bacillus subtilis PCI219 = assay: MIC, serial dilution on Mueller Hinton agar; type: cell-based; conditions: Bacillus subtilis PCI219; Mueller Hinton agar, 37°C, 18 hours; read-out: MIC.
[8] = system: Klebsiella pneumoniae 22#3038; assay: MIC, serial dilution on Mueller Hinton agar; type: cell-based; conditions: Klebsiella pneumoniae 22#3038, resistance mechanism APH(3')-II, ANT(2"), 37°C, 18 hours
From the text: The antibacterial spectra so determined of the new compounds No. 1 to No. 13 (each in the form of the free base) of this invention are as shown in Table 1 below.

Escherichia coli K-12 R5 = assay: MIC, serial dilution on Mueller Hinton agar; type: cell-based; conditions: K12R5, 18 h
Mycobacterium 607 = assay: MIC, serial dilution on Mueller Hinton agar; type: cell-based; conditions: Mycobacterium 607; Mueller Hinton agar, 37°C, incubated for 40 hours; read-out: MIC.
[9] = system: Staphylococcus aureus 209P; assay: MIC, serial dilution on Mueller Hinton agar; type: cell-based; conditions: Staphylococcus aureus 209P; Mueller Hinton agar, 37°C, 18 hours; read-out: MIC.
in vivo = conditions: mouse, iv
[10] = SP.PV16, Providencia sp. Pv 16, resistance mechanism AAC(2'), Mueller Hinton agar, 37°C, 18 hours, read-out: MIC.
[11] = Pseudomonas aeruginosa, GN315, 18 h
[12] = Staphylococcus aureus Ap01, resistance mechanism ANT(4'), Mueller Hinton agar, 37°C, 18 hours, read-out: MIC.
[13] = GN315, Pseudomonas aeruginosa GN 315, resistance mechanism AAC(6'), Mueller Hinton agar, 37°C, 18 hours, read-out: MIC.

Row | Compound | MIC [1] [µg/mL] | MIC (Escherichia coli JR225) [µg/mL] | MIC (Serratia marcescens) [µg/mL] | MIC (Providencia sp. Pv 16; [10]) [µg/mL] | MIC [2] [µg/mL] | MIC [3] [µg/mL] | MIC (Proteus rettgeri GN 311) [µg/mL] | MIC [4] [µg/mL] | MIC [5, 11] [µg/mL] | MIC [6] [µg/mL] | MIC (Escherichia coli K-12) [µg/mL] | MIC (Bacillus subtilis PCI219) [µg/mL] | MIC [8] [µg/mL] | MIC (Escherichia coli K-12 R5) [µg/mL] | MIC (Mycobacterium 607) [µg/mL] | MIC [9] [µg/mL] | MIC [7, 12] [µg/mL] | MIC [5, 13] [µg/mL] | other results
1 | NCC(O)C(=O)N[C@@H]1C[C@H](N)[C@@H](O[C@H]2O[C@H](CN)[C@@H](O)C[C@H]2N)[C@H](F)[C@H]1O[C@H]1O[C@H](CO)[C@@H](O)[C@H](N)[C@H]1O (stereo partly drawn) [Compound No. 7, 1-N-(3-Amino-2-(RS)-hydroxypropionyl)-5,3'-dideoxy-5-fluorokanamycin B] | < 0.2 | 0.78 (≈ 1.4 µM) | 3.12 (≈ 5.61 µM) | 0.78 (≈ 1.4 µM) | 0.78 (≈ 1.4 µM) | 0.78 (≈ 1.4 µM) | 0.78 (≈ 1.4 µM) | 0.39 (≈ 0.701 µM) | 6.25 (≈ 11.2 µM) | 1.56 (≈ 2.8 µM) | 0.2 (≈ 0.359 µM) | 0.2 (≈ 0.359 µM) | 3.12 (≈ 5.61 µM) | 6.25 (≈ 11.2 µM) | 0.78 (≈ 1.4 µM) | 0.39 (≈ 0.701 µM) | – | – | MIC ([7]; Staphylococcus aureus, AP01, 18 h): 1.56 µg/mL (≈ 2.8 µM)
2 | NC[C@H](O)C(=O)N[C@@H]1C[C@H](N)[C@@H](O[C@H]2O[C@H](CN)[C@@H](O)C[C@H]2N)[C@H](F)[C@H]1O[C@H]1O[C@H](CO)[C@@H](O)[C@H](N)[C@H]1O [Compound No. 8, 1-N-(3-Amino-2-(S)-hydroxypropionyl)-5,3'-dideoxy-5-fluorokanamycin B] | < 0.2 | 0.78 (≈ 1.4 µM) | 3.12 (≈ 5.61 µM) | 0.78 (≈ 1.4 µM) | 1.56 (≈ 2.8 µM) | 0.78 (≈ 1.4 µM) | 0.39 (≈ 0.701 µM) | 0.39 (≈ 0.701 µM) | 6.25 (≈ 11.2 µM) | 0.78 (≈ 1.4 µM) | 0.2 (≈ 0.359 µM) | 0.2 (≈ 0.359 µM) | 1.56 (≈ 2.8 µM) | 6.25 (≈ 11.2 µM) | 0.78 (≈ 1.4 µM) | 0.39 (≈ 0.701 µM) | 0.78 (≈ 1.4 µM) | – | –
3 | NCC[C@H](O)C(=O)N[C@@H]1C[C@H](N)[C@@H](O[C@H]2O[C@H](CN)C[C@H](O)[C@H]2N)[C@H](F)[C@H]1O[C@H]1O[C@H](CO)[C@@H](O)[C@H](N)[C@H]1O [Compound No. 10, 1-N-(4-Amino-2-(S)-hydroxybutyryl)-5,4'-dideoxy-5-fluorokanamycin B] | < 0.2 | 0.78 (≈ 1.37 µM) | 3.12 (≈ 5.47 µM) | 0.78 (≈ 1.37 µM) | 1.56 (≈ 2.73 µM) | 0.78 (≈ 1.37 µM) | 0.2 (≈ 0.35 µM) | 0.39 (≈ 0.683 µM) | – | 1.56 (≈ 2.73 µM) | 0.2 (≈ 0.35 µM) | 0.39 (≈ 0.683 µM) | 3.12 (≈ 5.47 µM) | 12.5 (≈ 21.9 µM) | 6.25 (≈ 11 µM) | 0.39 (≈ 0.683 µM) | 0.39 (≈ 0.683 µM) | 6.25 (≈ 11 µM) | –
4 | NC[C@@H]1CC[C@@H](N)[C@@H](O[C@H]2[C@H](F)[C@@H](O[C@H]3O[C@H](CO)[C@@H](O)[C@H](N)[C@H]3O)[C@H](NC(=O)[C@@H](O)CN)C[C@@H]2N)O1 [Compound No. 12, 1-N-(3-Amino-2-(S)-hydroxypropionyl)-5,3',4'-trideoxy-5-fluorokanamycin B] | 0.2 (≈ 0.37 µM) | 0.39 (≈ 0.721 µM) | 1.56 (≈ 2.89 µM) | – | 1.56 (≈ 2.89 µM) | 0.78 (≈ 1.44 µM) | < 0.2 | 0.39 (≈ 0.721 µM) | – | 1.56 (≈ 2.89 µM) | 0.2 (≈ 0.37 µM) | 0.39 (≈ 0.721 µM) | 1.56 (≈ 2.89 µM) | 50 (≈ 92.5 µM) | 0.78 (≈ 1.44 µM) | 0.39 (≈ 0.721 µM) | 0.78 (≈ 1.44 µM) | 6.25 (≈ 11.6 µM) | MIC (Providencia sp. Pv 16; Providencia, SP.PV16, 18 h): 1.56 µg/mL (≈ 2.89 µM)
5 | NC[C@@H]1CC[C@@H](N)[C@@H](O[C@H]2[C@H](O)[C@@H](O[C@H]3O[C@H](CO)[C@@H](O)[C@H](N)[C@H]3O)[C@H](N)C[C@@H]2N)O1 [DKB, 3',4'-dideoxykanamycin B, reference compound] | – | 100 (≈ 221 µM) | – | – | 50 (≈ 111 µM) | – | 0.2 (≈ 0.443 µM) | 0.2 (≈ 0.443 µM) | – | – | 0.2 (≈ 0.443 µM) | 0.39 (≈ 0.864 µM) | 50 (≈ 111 µM) | 50 (≈ 111 µM) | 1.56 (≈ 3.45 µM) | 0.39 (≈ 0.864 µM) | – | – | –
6 | NCC[C@H](O)C(=O)N[C@@H]1C[C@H](N)[C@@H](O[C@H]2O[C@H](CN)CC[C@H]2N)[C@H](O)[C@H]1O[C@H]1O[C@H](CO)[C@@H](O)[C@H](N)[C@H]1O [habekacin, 1-N-(4-amino-2-(S)-hydroxybutyryl)-3',4'-dideoxykanamycin B, reference compound] | – | – | – | – | – | – | – | – | – | – | – | – | – | – | – | – | – | – | LD50 (in vivo): 90 mg/kg
